Results from US10905691B2, “Use of triazolo(4,5-d)pyrimidine derivatives for prevention and treatment of bacterial infection” (Universite de Liege, priority 2016, dated 2021).

Key:
[1] = tested on: S. aureus MRSA (ATCC BAA-1556); assay: Killing curve (CFU counting); format: cell-based, Staphylococcus aureus; settings: Triafluocyl 20 μg/ml
Protocol: S. aureus MRSA (ATCC BAA-1556) was grown overnight in brain heart infusion (BHI) medium, diluted 1:100 in fresh BHI, and incubated aerobically at 37° C. until bacteria growth reached a logarithmic phase (OD600=0.25-0.3).
Triafluocyl (Cayman Chemical, Item No. 15425) (20 μg/ml), Vancomycin (Sigma, 4 μg/ml or 10 μg/ml), Minocycline (Sigma, 8 μg/ml) or a solvent (DMSO) were added to 5 ml of S. aureus MRSA suspensions.
Bacterial growth for S. aureus MRSA was measured after different time intervals by counting the colony-forming units after plating appropriate culture dilutions on BHI agar plates.
S. aureus MRSA (ATCC BAA-1556) was grown overnight in BHI medium, then a 1:100 inoculum was diluted in fresh BHI and incubated aerobically at 37° C. until bacteria growth reached a logarithmic phase (OD600=0.25-0.3). The culture was split into two and challenged with 38 μM Fluometacyl (=18.2 μg/ml) or DMSO (Ctrl). Bacterial growth was measured after different time intervals by counting the colony-forming units after plating appropriate culture dilutions on BHI agar plates. (N=2)

[2] = tested on: Escherichia coli (ATCC 8739); assay: MIC determination with or without polymyxin B nonapeptide (PMBN); format: cell-based; settings: PMBN alone up to 40 μg/ml
Protocol: Determination of Minimal Inhibitory Concentration (MIC) and Minimal Bactericidal Concentration (MBC) of Triafluocyl (Cayman Chemical, Item No. 15425) in presence of polymyxin B nonapeptide (PMBN) (Sigma-Aldrich Merk, Item No. P2076) against Escherichia coli (ATCC 8739). […] A single colony grown on a Luria-Bertani Agar (LB) plate was resuspended and cultured in LB medium overnight (O/N) in aerobic conditions (37° C. with 220 rpm shaking), next day a 1:50 inoculum in Mueller-Hinton broth (MHB) is incubated in aerobic conditions for 1 h30 (OD=0.08-0.1) and an inoculum corresponding to 3×10^6 colony forming unit (CFU)/ml, is incubated in presence or absence of different concentrations of Triafluocyl in 1% DMSO with or without 40 μg/ml Polymyxin B nonapeptide (PMBN) for 18 hr in aerobic conditions (37° C. with 220 rpm shaking). Growth of Escherichia coli in 7 conditions depicted in FIG. 11 is evaluated by reading the OD of each culture at 600 nm (OD600) in a spectrophotometer (Victor 3-Perkin Elmer). Determination of Minimal Inhibitory Concentration (MIC) and Minimal Bactericidal Concentration (MBC) of Fluometacyl in presence of polymyxin B nonapeptide (PMBN) (Sigma-Aldrich Merk, Item No. P2076) against Escherichia coli (ATCC 8739). The Minimal Inhibitory Concentration (MIC) represents the concentration, in a liquid culture, at which there is no visible growth of bacteria (no pellet or cloudiness), i.e. ΔOD at 600 nm equal to zero wherein ΔOD is the difference between the resulting optical density (OD) with the molecule together with PMBN, and the optical density (OD) of the blank (blank is the medium alone). A single colony grown on a Luria-Bertani Agar (LB) plate is resuspended and cultured in LB medium overnight (O/N) in aerobic conditions (37° C. with 220 rpm shaking), next day a 1:50 inoculum in Mueller-Hinton broth (MHB) is incubated in aerobic conditions for 1 h30 (OD=0.08-0.1) and an inoculum corresponding to 3×10^6 colony forming unit (CFU)/ml is incubated in presence or absence of different concentrations of Fluometacyl in 1% DMSO (vehicle) with or without 40 μg/ml Polymyxin B nonapeptide (PMBN) for 18 hr in aerobic conditions (37° C. with 220 rpm shaking). Growth of bacteria in the 7 individual cultures (FIG. 12A) is evaluated by reading the OD of each culture at 600 nm (OD600) in a spectrophotometer (Victor 3-Perkin Elmer).

Row | Compound | effect on S. aureus MRSA viable count after the first two hours ([1]; Vancomycin 10-fold MIC, Minocycline 8-fold MIC, FIG. 8A) | bactericidal effect over the 24 h-experiment compared with Triafluocyl ([1]; Vancomycin 4 or 10 μg/ml, Minocycline 8 μg/ml) | inhibition of E. coli growth [2]
1 | CN[C@H](CC(C)C)C(=O)N[C@H]1C(=O)N[C@@H](CC(N)=O)C(=O)N[C@H]2C(=O)N[C@H]3C(=O)N[C@H](C(=O)N[C@H](C(=O)O)c4cc(O)cc(O)c4-c4cc3ccc4O)[C@H](O)c3ccc(c(Cl)c3)Oc3cc2cc(c3O[C@@H]2O[C@H](CO)[C@@H](O)[C@H](O)[C@H]2O[C@H]2C[C@](C)(N)[C@H](O)[C@H](C)O2)Oc2ccc(cc2Cl)[C@H]1O [Vancomycin, reference compound] | ineffective | less efficient | 
2 | polymyxin B nonapeptide [PMBN, reference compound] |  |  | unable to inhibit E. coli growth
